# Data from PubChem BioAssay AID2060497 (Molecular Pharmacology Branch, DTP, NCI, 2025).
# Tested on: 317291-083-R-J1-PDC complex spheroids, viability
# Test: Anticancer human tumor 317291-083-R-J1-PDC patient-derived soft tissue sarcoma cell line growth inhibition [GQUAD]
# Settings: for IC50: curve of first compound; for viability, T/C: stronger effect = lower value
# Procedure, shortened: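 Viability of tumor cells grown as complex spheroids with endothelial and stromal cells, exposed to drug combinations. Top concentration at or near clinical Cmax (else 10 microM), diluted in half-log increments.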
# [1] = second compound 0.0316 µM, first compound 0.0316 µM
# [2] = second compound 0.0316 µM, first compound 0.1 µM
# [3] = second compound 0.0316 µM, first compound 0.316 µM
# [4] = second compound 0.0316 µM, first compound 1 µM
# [5] = second compound 0.0316 µM, first compound 3.16 µM
# [6] = second compound 0.0316 µM, first compound 10 µM
# [7] = second compound 0.1 µM, first compound 0.0316 µM
# [8] = second compound 0.1 µM, first compound 0.1 µM
# [9] = second compound 0.1 µM, first compound 0.316 µM
# [10] = second compound 0.1 µM, first compound 1 µM
# [11] = second compound 0.1 µM, first compound 3.16 µM
# [12] = second compound 0.1 µM, first compound 10 µM
# [13] = second compound 0.316 µM, first compound 0.0316 µM
# [14] = second compound 0.316 µM, first compound 0.1 µM
# [15] = second compound 0.316 µM, first compound 0.316 µM
# [16] = second compound 0.316 µM, first compound 1 µM
# [17] = second compound 0.316 µM, first compound 3.16 µM
# [18] = second compound 0.316 µM, first compound 10 µM
# [19] = second compound 1 µM, first compound 0.0316 µM
# [20] = second compound 1 µM, first compound 0.1 µM
# [21] = second compound 1 µM, first compound 0.316 µM
# [22] = second compound 1 µM, first compound 1 µM
# [23] = second compound 1 µM, first compound 3.16 µM
# [24] = second compound 1 µM, first compound 10 µM
# [25] = second compound 3.16 µM, first compound 0.0316 µM
# [26] = second compound 3.16 µM, first compound 0.1 µM
# [27] = second compound 3.16 µM, first compound 0.316 µM
# [28] = second compound 3.16 µM, first compound 1 µM
# [29] = second compound 3.16 µM, first compound 3.16 µM
# [30] = second compound 3.16 µM, first compound 10 µM
# [31] = second compound 10 µM, first compound 0.0316 µM
# [32] = second compound 10 µM, first compound 0.1 µM
# [33] = second compound 10 µM, first compound 0.316 µM
# [34] = second compound 10 µM, first compound 1 µM
# [35] = second compound 10 µM, first compound 3.16 µM
# [36] = second compound 10 µM, first compound 10 µM
# 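Note: spheroids exposed to compounds for one week before readout.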
# 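Throughout, for viability, T/C: percent viability relative to DMSO vehicle wells taken as 100%.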
compound,measurement,setting,value
C=CC(=O)N1CCN(c2nc(=O)n(-c3c(C)ccnc3C(C)C)c3nc(-c4c(O)cccc4F)c(F)cc23)C(C)C1 (stereo unspecified) + Cc1[nH]c2ccc(F)cc2c1-c1nc2c3cccnc3c3ncccc3c2[nH]1,IC50,second compound 0.0316 µM,> 10 µM
same,IC50,second compound 0.1 µM,> 10 µM
same,IC50,second compound 0.316 µM,> 10 µM
same,IC50,second compound 1 µM,> 10 µM
same,IC50,second compound 3.16 µM,> 10 µM
same,IC50,second compound 10 µM,5.95 µM
same,"viability, T/C",[1],112%
same,"viability, T/C",[2],99.2%
same,"viability, T/C",[3],113%
same,"viability, T/C",[4],89.5%
same,"viability, T/C",[5],102%
same,"viability, T/C",[6],60.8%
same,"viability, T/C",[7],110%
same,"viability, T/C",[8],97.4%
same,"viability, T/C",[9],104%
same,"viability, T/C",[10],116%
same,"viability, T/C",[11],93.4%
same,"viability, T/C",[12],71.8%
same,"viability, T/C",[13],101%
same,"viability, T/C",[14],113%
same,"viability, T/C",[15],105%
same,"viability, T/C",[16],99.4%
same,"viability, T/C",[17],104%
same,"viability, T/C",[18],85.3%
same,"viability, T/C",[19],109%
same,"viability, T/C",[20],102%
same,"viability, T/C",[21],110%
same,"viability, T/C",[22],104%
same,"viability, T/C",[23],88.9%
same,"viability, T/C",[24],73.2%
same,"viability, T/C",[25],93.3%
same,"viability, T/C",[26],91.4%
same,"viability, T/C",[27],96%
same,"viability, T/C",[28],93.1%
same,"viability, T/C",[29],74.7%
same,"viability, T/C",[30],51.5%
same,"viability, T/C",[31],58.4%
same,"viability, T/C",[32],69.9%
same,"viability, T/C",[33],78.5%
same,"viability, T/C",[34],74.3%
same,"viability, T/C",[35],74.9%
same,"viability, T/C",[36],32.7%
CC(C)n1c(=O)n(C)c2cnc3cc(F)c(-c4ccc(OCCCN5CCCCC5)nc4)cc3c21 + Cc1[nH]c2ccc(F)cc2c1-c1nc2c3cccnc3c3ncccc3c2[nH]1,IC50,second compound 0.0316 µM,> 10 µM
same,IC50,second compound 0.1 µM,8.61 µM
same,IC50,second compound 0.316 µM,8.62 µM
same,IC50,second compound 1 µM,> 10 µM
same,IC50,second compound 3.16 µM,7.88 µM
same,IC50,second compound 10 µM,> 10 µM
same,"viability, T/C",[1],104%
same,"viability, T/C",[2],111%
same,"viability, T/C",[3],92.5%
same,"viability, T/C",[4],97.1%
same,"viability, T/C",[5],86.2%
same,"viability, T/C",[6],50.5%
same,"viability, T/C",[7],104%
same,"viability, T/C",[8],101%
same,"viability, T/C",[9],96.3%
same,"viability, T/C",[10],96.7%
same,"viability, T/C",[11],92.9%
same,"viability, T/C",[12],43.3%
same,"viability, T/C",[13],88.6%
same,"viability, T/C",[14],103%
same,"viability, T/C",[15],105%
same,"viability, T/C",[16],85%
same,"viability, T/C",[17],106%
same,"viability, T/C",[18],42.9%
same,"viability, T/C",[19],114%
same,"viability, T/C",[20],108%
same,"viability, T/C",[21],93.7%
same,"viability, T/C",[22],96.3%
same,"viability, T/C",[23],92.7%
same,"viability, T/C",[24],53.5%
same,"viability, T/C",[25],80.7%
same,"viability, T/C",[26],103%
same,"viability, T/C",[27],97.6%
same,"viability, T/C",[28],72.4%
same,"viability, T/C",[29],93.8%
same,"viability, T/C",[30],39.7%
same,"viability, T/C",[31],99.2%
same,"viability, T/C",[32],107%
same,"viability, T/C",[33],83.5%
same,"viability, T/C",[34],92.5%
same,"viability, T/C",[35],85.2%
same,"viability, T/C",[36],50%
CC1COCCN1c1cc(-c2ccnn2C)c2ccnc(-c3ccn[nH]3)c2n1 (stereo unspecified) + Cc1[nH]c2ccc(F)cc2c1-c1nc2c3cccnc3c3ncccc3c2[nH]1,IC50,second compound 0.0316 µM,0.0888 µM
same,IC50,second compound 0.1 µM,0.0751 µM
same,IC50,second compound 0.316 µM,0.0644 µM
same,IC50,second compound 1 µM,0.0625 µM
same,IC50,second compound 3.16 µM,0.0654 µM
same,IC50,second compound 10 µM,0.0709 µM
same,"viability, T/C",[1],87.9%
same,"viability, T/C",[2],45.6%
same,"viability, T/C",[3],16.4%
same,"viability, T/C",[4],11.7%
same,"viability, T/C",[5],13%
same,"viability, T/C",[6],15.1%
same,"viability, T/C",[7],89.4%
same,"viability, T/C",[8],36.9%
same,"viability, T/C",[9],14.7%
same,"viability, T/C",[10],13.8%
same,"viability, T/C",[11],13.6%
same,"viability, T/C",[12],11.5%
same,"viability, T/C",[13],77.7%
same,"viability, T/C",[14],33%
same,"viability, T/C",[15],13.8%
same,"viability, T/C",[16],14.1%
same,"viability, T/C",[17],11.5%
same,"viability, T/C",[18],14.4%
same,"viability, T/C",[19],76.1%
same,"viability, T/C",[20],31.9%
same,"viability, T/C",[21],18%
same,"viability, T/C",[22],14.8%
same,"viability, T/C",[23],15.3%
same,"viability, T/C",[24],10.1%
same,"viability, T/C",[25],60.7%
same,"viability, T/C",[26],43.7%
same,"viability, T/C",[27],13.3%
same,"viability, T/C",[28],9.76%
same,"viability, T/C",[29],9.63%
same,"viability, T/C",[30],14.1%
same,"viability, T/C",[31],89%
same,"viability, T/C",[32],33.4%
same,"viability, T/C",[33],13.8%
same,"viability, T/C",[34],8.91%
same,"viability, T/C",[35],10%
same,"viability, T/C",[36],12.1%
